Reference: patent publication US9340590B2 (priority 2011, dated 2016)
Where two headings read alike, the source gives them in different places. Positions of bridges follow the written chain, without caps; N, C: chain ends. Residues, ends and D or L forms follow the SMILES beside them.

Columns and labels:
Assay in all cases: cell-based
hNav1.5 = hNav1.5 (Homo sapiens, UniProt Q14524)
hNav1.7 = hNav1.7 (Homo sapiens, UniProt Q15858); assay type: cell-based; details: IonWorks Quattro, read-out: IWQ Use Nav1.7
Chain of hNav1.7 (Q15858 whole entry, looked up): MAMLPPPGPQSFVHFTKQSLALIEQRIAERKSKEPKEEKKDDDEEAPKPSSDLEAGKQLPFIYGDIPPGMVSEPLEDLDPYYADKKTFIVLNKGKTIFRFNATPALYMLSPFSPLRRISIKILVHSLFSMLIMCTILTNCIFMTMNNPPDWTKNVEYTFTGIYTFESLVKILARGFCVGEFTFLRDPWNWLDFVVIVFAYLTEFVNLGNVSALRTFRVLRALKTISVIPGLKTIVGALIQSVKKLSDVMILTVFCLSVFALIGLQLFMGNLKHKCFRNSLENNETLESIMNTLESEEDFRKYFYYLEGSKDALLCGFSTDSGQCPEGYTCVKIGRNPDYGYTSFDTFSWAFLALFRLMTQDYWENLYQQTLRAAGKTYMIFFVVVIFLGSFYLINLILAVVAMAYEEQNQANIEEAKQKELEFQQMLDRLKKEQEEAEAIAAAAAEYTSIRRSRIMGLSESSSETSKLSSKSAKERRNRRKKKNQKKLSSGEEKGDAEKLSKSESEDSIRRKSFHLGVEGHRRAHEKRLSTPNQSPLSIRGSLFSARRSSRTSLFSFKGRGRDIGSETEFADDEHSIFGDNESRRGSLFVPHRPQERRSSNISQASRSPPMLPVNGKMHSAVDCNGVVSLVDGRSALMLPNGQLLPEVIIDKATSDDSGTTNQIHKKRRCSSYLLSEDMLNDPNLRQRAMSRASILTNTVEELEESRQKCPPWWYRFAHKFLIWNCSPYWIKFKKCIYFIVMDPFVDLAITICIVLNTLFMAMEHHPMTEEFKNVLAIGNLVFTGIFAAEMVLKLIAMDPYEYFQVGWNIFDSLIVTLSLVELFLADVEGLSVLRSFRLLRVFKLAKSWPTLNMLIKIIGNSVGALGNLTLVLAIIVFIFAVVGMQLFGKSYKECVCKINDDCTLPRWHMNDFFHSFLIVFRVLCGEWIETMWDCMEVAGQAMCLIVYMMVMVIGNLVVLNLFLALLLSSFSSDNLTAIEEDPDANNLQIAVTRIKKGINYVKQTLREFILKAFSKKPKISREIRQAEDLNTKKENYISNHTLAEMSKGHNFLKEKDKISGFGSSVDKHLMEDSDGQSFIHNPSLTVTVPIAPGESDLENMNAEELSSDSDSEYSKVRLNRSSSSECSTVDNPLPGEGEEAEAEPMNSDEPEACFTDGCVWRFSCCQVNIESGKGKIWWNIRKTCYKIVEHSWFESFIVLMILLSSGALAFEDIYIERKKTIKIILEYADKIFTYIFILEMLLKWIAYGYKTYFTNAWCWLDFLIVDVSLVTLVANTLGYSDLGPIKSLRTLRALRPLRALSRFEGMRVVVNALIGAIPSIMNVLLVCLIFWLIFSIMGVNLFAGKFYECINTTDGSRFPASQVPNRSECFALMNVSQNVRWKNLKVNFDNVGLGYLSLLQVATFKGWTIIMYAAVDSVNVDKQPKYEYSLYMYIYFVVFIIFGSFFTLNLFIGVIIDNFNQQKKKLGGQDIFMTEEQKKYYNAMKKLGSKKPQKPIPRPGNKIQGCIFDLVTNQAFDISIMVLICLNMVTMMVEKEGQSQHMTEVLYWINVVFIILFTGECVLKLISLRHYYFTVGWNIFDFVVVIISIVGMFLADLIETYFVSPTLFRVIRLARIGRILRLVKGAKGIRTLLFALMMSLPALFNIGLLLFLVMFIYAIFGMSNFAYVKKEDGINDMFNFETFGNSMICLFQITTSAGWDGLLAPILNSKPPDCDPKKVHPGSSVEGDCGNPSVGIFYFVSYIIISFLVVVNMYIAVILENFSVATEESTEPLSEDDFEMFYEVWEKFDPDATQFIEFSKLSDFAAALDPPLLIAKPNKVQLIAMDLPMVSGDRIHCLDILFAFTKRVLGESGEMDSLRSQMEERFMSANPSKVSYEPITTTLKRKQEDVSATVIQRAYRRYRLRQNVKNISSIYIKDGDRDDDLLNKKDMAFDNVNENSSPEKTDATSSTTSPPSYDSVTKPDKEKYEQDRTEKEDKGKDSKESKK

hNav1.3 = hNav1.3 (Homo sapiens, UniProt Q9NY46); details: IonWorks Quattro, read-out: IWQ Use Nav1.3
[1] = clamped to −110 mV, depolarized to −10 mV, 5 min after compound, n=2
[2] = IonWorks Quattro, clamped to −110 mV, depolarized to −10 mV, 5 min after compound, n=2, read-out: IWQ Use Nav1.5

Chain of hNav1.5 (Q14524 whole entry, looked up): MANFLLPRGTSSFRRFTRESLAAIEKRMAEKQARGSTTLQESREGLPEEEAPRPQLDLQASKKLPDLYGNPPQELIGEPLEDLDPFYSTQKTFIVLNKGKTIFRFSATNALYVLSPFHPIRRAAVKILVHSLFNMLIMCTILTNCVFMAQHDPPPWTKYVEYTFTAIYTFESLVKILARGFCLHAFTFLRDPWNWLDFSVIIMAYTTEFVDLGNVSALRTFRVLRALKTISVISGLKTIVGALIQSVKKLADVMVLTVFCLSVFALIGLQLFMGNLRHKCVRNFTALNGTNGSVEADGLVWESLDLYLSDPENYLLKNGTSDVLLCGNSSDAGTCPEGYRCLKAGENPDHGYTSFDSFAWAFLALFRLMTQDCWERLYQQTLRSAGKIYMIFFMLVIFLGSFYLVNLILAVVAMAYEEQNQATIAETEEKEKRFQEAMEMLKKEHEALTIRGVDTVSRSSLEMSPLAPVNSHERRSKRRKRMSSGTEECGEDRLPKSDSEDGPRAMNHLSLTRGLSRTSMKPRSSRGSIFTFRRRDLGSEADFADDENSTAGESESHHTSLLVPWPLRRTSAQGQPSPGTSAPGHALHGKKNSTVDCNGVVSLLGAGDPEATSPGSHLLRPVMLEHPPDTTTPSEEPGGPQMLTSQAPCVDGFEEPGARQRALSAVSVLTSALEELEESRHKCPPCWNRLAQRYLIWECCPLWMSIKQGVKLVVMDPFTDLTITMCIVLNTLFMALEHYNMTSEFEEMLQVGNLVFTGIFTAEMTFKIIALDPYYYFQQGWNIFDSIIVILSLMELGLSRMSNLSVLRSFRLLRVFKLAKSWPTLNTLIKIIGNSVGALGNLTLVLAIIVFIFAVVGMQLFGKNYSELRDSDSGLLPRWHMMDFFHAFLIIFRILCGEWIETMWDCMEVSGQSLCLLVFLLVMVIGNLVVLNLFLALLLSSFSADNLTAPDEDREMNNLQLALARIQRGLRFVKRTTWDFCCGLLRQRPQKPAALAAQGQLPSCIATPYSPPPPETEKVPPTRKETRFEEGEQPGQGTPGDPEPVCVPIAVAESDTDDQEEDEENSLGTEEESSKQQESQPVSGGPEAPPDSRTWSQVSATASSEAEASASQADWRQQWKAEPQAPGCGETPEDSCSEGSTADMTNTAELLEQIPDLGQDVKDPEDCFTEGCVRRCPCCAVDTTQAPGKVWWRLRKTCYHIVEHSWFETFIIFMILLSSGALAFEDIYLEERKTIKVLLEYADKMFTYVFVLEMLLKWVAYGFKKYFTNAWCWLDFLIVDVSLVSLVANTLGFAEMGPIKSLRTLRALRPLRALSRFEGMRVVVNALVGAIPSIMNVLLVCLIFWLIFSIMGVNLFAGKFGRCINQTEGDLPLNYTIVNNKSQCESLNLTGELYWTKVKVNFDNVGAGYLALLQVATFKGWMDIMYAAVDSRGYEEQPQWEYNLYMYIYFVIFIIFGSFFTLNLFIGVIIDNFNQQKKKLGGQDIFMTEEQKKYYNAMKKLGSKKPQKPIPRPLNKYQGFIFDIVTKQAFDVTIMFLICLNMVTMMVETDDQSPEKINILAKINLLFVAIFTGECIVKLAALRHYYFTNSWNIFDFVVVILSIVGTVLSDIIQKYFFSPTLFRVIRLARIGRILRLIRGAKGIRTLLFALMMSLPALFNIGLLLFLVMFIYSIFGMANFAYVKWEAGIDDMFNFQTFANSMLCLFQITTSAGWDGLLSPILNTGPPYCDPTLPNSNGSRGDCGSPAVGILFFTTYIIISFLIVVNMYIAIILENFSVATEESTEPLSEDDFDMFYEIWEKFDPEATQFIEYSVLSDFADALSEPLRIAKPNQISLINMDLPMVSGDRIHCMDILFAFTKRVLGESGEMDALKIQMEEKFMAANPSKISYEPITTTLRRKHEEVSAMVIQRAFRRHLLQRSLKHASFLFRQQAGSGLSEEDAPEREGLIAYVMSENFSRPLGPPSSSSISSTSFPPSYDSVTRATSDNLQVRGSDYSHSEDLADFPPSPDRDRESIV

## CC[C@H](C)[C@@H]1NC(=O)[C@@H]2CSSC[C@@H]3NC(=O)[C@H](C(C)C)NC(=O)[C@H](CC(C)C)NC(=O)[C@H](CC(N)=O)NC(=O)[C@@H]4CCCN4C(=O)[C@H](CCCNC(=N)N)NC(=O)[C@H](CSSC[C@H](NC(=O)[C@@H](N)CC(=O)O)C(=O)N[C@@H](CC(C)C)C(=O)NCC(=O)N[C@@H](Cc4ccccc4)C(=O)N[C@@H](CCSC)C(=O)N[C@@H](CCCNC(=N)N)C(=O)N[C@@H](CCCCN)C(=O)N2)NC(=O)[C@H](CSSC[C@@H](C(=O)N[C@@H](CCCCN)C(=O)N[C@@H](Cc2ccc(O)cc2)C(=O)N[C@H](C(=O)N[C@@H](Cc2ccccc2)C(N)=O)C(C)C)NC(=O)[C@H](Cc2c[nH]c4ccccc24)NC(=O)[C@H](CCCNC(=N)N)NC(=O)[C@H](Cc2cnc[nH]2)NC(=O)[C@H]([C@@H](C)O)NC(=O)[C@H](CCCNC(=N)N)NC(=O)[C@H](CO)NC3=O)NC(=O)[C@H](CCCCN)NC(=O)[C@H](CC(=O)O)NC(=O)[C@H](CC(N)=O)NC(=O)[C@H](CC(=O)O)NC(=O)[C@@H]2CCCN2C1=O [SEQ ID NO: 72, [Arg28]GpTx-1]
hNav1.5; IWQ Use Nav1.5 (μM)
  IC50: 8.95 µM
hNav1.7; Table 23, use, […]
  IC50: 0.08 µM
hNav1.3; Table 23, use, […]
  IC50: 0.13 µM

## CC[C@H](C)[C@@H]1NC(=O)[C@@H]2CSSC[C@@H]3NC(=O)[C@H](C(C)C)NC(=O)[C@H](CC(C)C)NC(=O)[C@H](CC(N)=O)NC(=O)[C@@H]4CCCN4C(=O)[C@H](CCCNC(=N)N)NC(=O)[C@H](CSSC[C@H](NC(=O)[C@@H](N)Cc4c[nH]c5ccccc45)C(=O)N[C@@H](CC(C)C)C(=O)NCC(=O)N[C@@H](Cc4ccccc4)C(=O)N[C@@H](CCSC)C(=O)N[C@@H](CCCNC(=N)N)C(=O)N[C@@H](CCCCN)C(=O)N2)NC(=O)[C@H](CSSC[C@@H](C(=O)N[C@@H](CCCCN)C(=O)N[C@@H](Cc2ccc(O)cc2)C(=O)N[C@H](C(=O)N[C@@H](Cc2ccccc2)C(N)=O)C(C)C)NC(=O)[C@H](Cc2c[nH]c4ccccc24)NC(=O)[C@H](CCCCN)NC(=O)[C@H](Cc2cnc[nH]2)NC(=O)[C@H]([C@@H](C)O)NC(=O)[C@H](CCCNC(=N)N)NC(=O)[C@H](CO)NC3=O)NC(=O)[C@H](CCCCN)NC(=O)[C@H](CC(=O)O)NC(=O)[C@H](CC(N)=O)NC(=O)[C@H](CC(=O)O)NC(=O)[C@@H]2CCCN2C1=O [SEQ ID NO: 81] (H-WCLGFMRKCIPDNDKCCRPNLVCSRTHKWCKYVF-NH2; disulfide 2-17, 9-23, 16-30)
hNav1.5; IWQ Use Nav1.5
  IC50: 8.79 µM
hNav1.7; [1]
  IC50: 0.05 µM
hNav1.3; [1]
  IC50: 0.1 µM

## CC[C@H](C)[C@@H]1NC(=O)[C@@H]2CSSC[C@@H]3NC(=O)[C@H](C(C)C)NC(=O)[C@H](CC(C)C)NC(=O)[C@H](CC(N)=O)NC(=O)[C@@H]4CCCN4C(=O)[C@H](CCCNC(=N)N)NC(=O)[C@H](CSSC[C@H](NC(=O)[C@@H](N)CC(=O)O)C(=O)N[C@@H](CC(C)C)C(=O)NCC(=O)N[C@@H](Cc4c[nH]c5ccccc45)C(=O)N[C@@H](CCSC)C(=O)N[C@@H](CCCNC(=N)N)C(=O)N[C@@H](CCCCN)C(=O)N2)NC(=O)[C@H](CSSC[C@@H](C(=O)N[C@@H](CCCCN)C(=O)N[C@@H](Cc2ccc(O)cc2)C(=O)N[C@H](C(=O)N[C@@H](Cc2ccccc2)C(N)=O)C(C)C)NC(=O)[C@H](Cc2c[nH]c4ccccc24)NC(=O)[C@H](CCCCN)NC(=O)[C@H](Cc2cnc[nH]2)NC(=O)[C@H]([C@@H](C)O)NC(=O)[C@H](CCCNC(=N)N)NC(=O)[C@H](CO)NC3=O)NC(=O)[C@H](CCCCN)NC(=O)[C@H](CC(=O)O)NC(=O)[C@H](CC(N)=O)NC(=O)[C@H](CC(=O)O)NC(=O)[C@@H]2CCCN2C1=O [SEQ ID NO: 82] (H-DCLGWMRKCIPDNDKCCRPNLVCSRTHKWCKYVF-NH2; disulfide 2-17, 9-23, 16-30)
hNav1.5; [2]
  IC50: 9.32 µM
hNav1.7; [1]
  IC50: 0.15 µM
hNav1.3; [1]
  IC50: 0.11 µM

## CC[C@H](C)[C@@H]1NC(=O)[C@@H]2CSSC[C@@H]3NC(=O)[C@H](C(C)C)NC(=O)[C@H](CC(C)C)NC(=O)[C@H](CC(N)=O)NC(=O)[C@H](CO)NC(=O)[C@H](CO)NC(=O)[C@H](CCCNC(=N)N)NC(=O)[C@H](CSSC[C@H](NC(=O)[C@@H](N)CC(=O)O)C(=O)N[C@@H](CC(C)C)C(=O)NCC(=O)N[C@@H](Cc4ccccc4)C(=O)N[C@@H](CCSC)C(=O)N[C@@H](CCCNC(=N)N)C(=O)N[C@@H](CCCCN)C(=O)N2)NC(=O)[C@H](CSSC[C@@H](C(=O)N[C@@H](CCCCN)C(=O)N[C@@H](Cc2ccc(O)cc2)C(=O)N[C@H](C(=O)N[C@@H](Cc2ccccc2)C(N)=O)C(C)C)NC(=O)[C@H](Cc2c[nH]c4ccccc24)NC(=O)[C@H](CCCCN)NC(=O)[C@H](Cc2c[nH]cn2)NC(=O)[C@H]([C@@H](C)O)NC(=O)[C@H](CCCNC(=N)N)NC(=O)[C@H](CO)NC3=O)NC(=O)[C@H](CCCCN)NC(=O)[C@H](CC(=O)O)NC(=O)[C@H](CC(N)=O)NC(=O)[C@H](CC(=O)O)NC(=O)[C@@H]2CCCN2C1=O [SEQ ID NO: 93, [Ser-Ser19]GpTx-1] (H-DCLGFMRKCIPDNDKCCRSSNLVCSRTHKWCKYVF-NH2; disulfide 2-17, 9-24, 16-31)
hNav1.5; IonWorks Quattro, Use, read-out: IWQ Use Nav1.5
  IC50: 13.9 µM
hNav1.7; Use
  IC50: 0.27 µM
hNav1.3; Use
  IC50: 0.32 µM

## CC[C@H](C)[C@@H]1NC(=O)[C@@H]2CSSC[C@@H]3NC(=O)[C@H](C(C)C)NC(=O)[C@H](CC(C)C)NC(=O)[C@H](CC(N)=O)NC(=O)[C@@H]4CCCN4C(=O)[C@H](CCCNC(=N)N)NC(=O)[C@H](CSSC[C@H](NC(=O)[C@@H](N)Cc4ccc(O)cc4)C(=O)N[C@@H](CC(C)C)C(=O)NCC(=O)N[C@@H](Cc4ccccc4)C(=O)N[C@@H](CCSC)C(=O)N[C@@H](CCCNC(=N)N)C(=O)N[C@@H](CCCCN)C(=O)N2)NC(=O)[C@H](CSSC[C@@H](C(=O)N[C@@H](CCCCN)C(=O)N[C@@H](Cc2ccc(O)cc2)C(=O)N[C@H](C(=O)N[C@@H](Cc2ccccc2)C(N)=O)C(C)C)NC(=O)[C@H](Cc2c[nH]c4ccccc24)NC(=O)[C@H](CCCCN)NC(=O)[C@H](Cc2c[nH]cn2)NC(=O)[C@H]([C@@H](C)O)NC(=O)[C@H](CCCNC(=N)N)NC(=O)[C@H](CO)NC3=O)NC(=O)[C@H](CCCCN)NC(=O)[C@H](CC(=O)O)NC(=O)[C@H](CC(N)=O)NC(=O)[C@H](CC(=O)O)NC(=O)[C@@H]2CCCN2C1=O [SEQ ID NO: 97] (H-YCLGFMRKCIPDNDKCCRPNLVCSRTHKWCKYVF-NH2; disulfide 2-17, 9-23, 16-30)
hNav1.5; [2]
  IC50: 10.6 µM
hNav1.7; [1]
  IC50: 0.16 µM
hNav1.3; [1]
  IC50: 0.13 µM

## CC[C@H](C)[C@@H]1NC(=O)[C@@H]2CSSC[C@@H]3NC(=O)[C@H](C(C)C)NC(=O)[C@H](CC(C)C)NC(=O)[C@H](CC(N)=O)NC(=O)[C@@H]4CCCN4C(=O)[C@H](CCCNC(=N)N)NC(=O)[C@H](CSSC[C@H](NC(=O)[C@@H](N)CC(=O)O)C(=O)N[C@@H](CCC(N)=O)C(=O)NCC(=O)N[C@@H](Cc4ccccc4)C(=O)N[C@@H](CCSC)C(=O)N[C@@H](CCCNC(=N)N)C(=O)N[C@@H](CCCCN)C(=O)N2)NC(=O)[C@H](CSSC[C@@H](C(=O)N[C@@H](CCCCN)C(=O)N[C@@H](Cc2ccc(O)cc2)C(=O)N[C@H](C(=O)N[C@@H](Cc2ccccc2)C(N)=O)C(C)C)NC(=O)[C@H](Cc2c[nH]c4ccccc24)NC(=O)[C@H](CCCCN)NC(=O)[C@H](Cc2c[nH]cn2)NC(=O)[C@H]([C@@H](C)O)NC(=O)[C@H](CCCNC(=N)N)NC(=O)[C@H](CO)NC3=O)NC(=O)[C@H](CCCCN)NC(=O)[C@H](CC(=O)O)NC(=O)[C@H](CC(N)=O)NC(=O)[C@H](CC(=O)O)NC(=O)[C@@H]2CCCN2C1=O [SEQ ID NO: 98] (H-DCQGFMRKCIPDNDKCCRPNLVCSRTHKWCKYVF-NH2; disulfide 2-17, 9-23, 16-30)
hNav1.5; [2]
  IC50: 16.4 µM
hNav1.7; [1]
  IC50: 0.25 µM
hNav1.3; [1]
  IC50: 0.24 µM

## CC[C@H](C)[C@@H]1NC(=O)[C@@H]2CSSC[C@@H]3NC(=O)[C@H](C(C)C)NC(=O)[C@H](CC(C)C)NC(=O)[C@H](CC(N)=O)NC(=O)[C@@H]4CCCN4C(=O)[C@H](CCCNC(=N)N)NC(=O)[C@H](CSSC[C@H](NC(=O)[C@@H](N)CC(=O)O)C(=O)N[C@@H](CC(C)C)C(=O)NCC(=O)N[C@@H](Cc4cccc5ccccc45)C(=O)N[C@@H](CCSC)C(=O)N[C@@H](CCCNC(=N)N)C(=O)N[C@@H](CCCCN)C(=O)N2)NC(=O)[C@H](CSSC[C@@H](C(=O)N[C@@H](CCCCN)C(=O)N[C@@H](Cc2ccc(O)cc2)C(=O)N[C@H](C(=O)N[C@@H](Cc2ccccc2)C(N)=O)C(C)C)NC(=O)[C@H](Cc2c[nH]c4ccccc24)NC(=O)[C@H](CCCCN)NC(=O)[C@H](Cc2c[nH]cn2)NC(=O)[C@H]([C@@H](C)O)NC(=O)[C@H](CCCNC(=N)N)NC(=O)[C@H](CO)NC3=O)NC(=O)[C@H](CCCCN)NC(=O)[C@H](CC(=O)O)NC(=O)[C@H](CC(N)=O)NC(=O)[C@H](CC(=O)O)NC(=O)[C@@H]2CCCN2C1=O [SEQ ID NO: 105]
hNav1.5; IWQ Use Nav1.5
  IC50: 13.4 µM
hNav1.7; [1]
  IC50: 0.08 µM
hNav1.3; [1]
  IC50: 0.1 µM
